Laboratory results taken from US12403128B2, “Compositions and methods for blocking sodium channels” (University of Virginia Patent Foundation, priority 2017, dated 2025).
Structures can show the parent of a compound that is named as a salt.

Molecular target: Nav1.6 (Homo sapiens, UniProt Q9UQD0)
Experiment: % block of Nav1.6 at 100 μM and IC50 (NaV1.6)
Assay type: cell-based
Settings: for inhibition at 100 µM: 100 μM compound; for IC50: NaV1.6, Table 2, MV1060-MV1091, unit inferred, read-out: IC50
Protocol: Evaluation of Compounds for % Block of Nav1.6 at 100 μM
Compounds of the present invention were tested in an assay for % block of Nav1.6 at a concentration of 100 μM compound. Table 1 also indicates the melting point ranges for some compounds.
Some such compounds correspond to a compound of Formula III, wherein R9 is substituted with a halogen, a nitro or a CF3 group. In comparing MV1089, MV1090 and MV1091, it is shown that compounds of Formula III where R3 is H result in higher % block than when R3 is substituted. e.g., by OCH3. In comparing MV1066, MV1084, MV1085, MV1086, MV1087 and MV1088, it is shown that compounds of Formula III where R9 is halogen, a nitro or a CF3 group result in higher % block than when R9 is OCH3, COOH or CH3.

Sequence of Nav1.6 (Q9UQD0 whole entry): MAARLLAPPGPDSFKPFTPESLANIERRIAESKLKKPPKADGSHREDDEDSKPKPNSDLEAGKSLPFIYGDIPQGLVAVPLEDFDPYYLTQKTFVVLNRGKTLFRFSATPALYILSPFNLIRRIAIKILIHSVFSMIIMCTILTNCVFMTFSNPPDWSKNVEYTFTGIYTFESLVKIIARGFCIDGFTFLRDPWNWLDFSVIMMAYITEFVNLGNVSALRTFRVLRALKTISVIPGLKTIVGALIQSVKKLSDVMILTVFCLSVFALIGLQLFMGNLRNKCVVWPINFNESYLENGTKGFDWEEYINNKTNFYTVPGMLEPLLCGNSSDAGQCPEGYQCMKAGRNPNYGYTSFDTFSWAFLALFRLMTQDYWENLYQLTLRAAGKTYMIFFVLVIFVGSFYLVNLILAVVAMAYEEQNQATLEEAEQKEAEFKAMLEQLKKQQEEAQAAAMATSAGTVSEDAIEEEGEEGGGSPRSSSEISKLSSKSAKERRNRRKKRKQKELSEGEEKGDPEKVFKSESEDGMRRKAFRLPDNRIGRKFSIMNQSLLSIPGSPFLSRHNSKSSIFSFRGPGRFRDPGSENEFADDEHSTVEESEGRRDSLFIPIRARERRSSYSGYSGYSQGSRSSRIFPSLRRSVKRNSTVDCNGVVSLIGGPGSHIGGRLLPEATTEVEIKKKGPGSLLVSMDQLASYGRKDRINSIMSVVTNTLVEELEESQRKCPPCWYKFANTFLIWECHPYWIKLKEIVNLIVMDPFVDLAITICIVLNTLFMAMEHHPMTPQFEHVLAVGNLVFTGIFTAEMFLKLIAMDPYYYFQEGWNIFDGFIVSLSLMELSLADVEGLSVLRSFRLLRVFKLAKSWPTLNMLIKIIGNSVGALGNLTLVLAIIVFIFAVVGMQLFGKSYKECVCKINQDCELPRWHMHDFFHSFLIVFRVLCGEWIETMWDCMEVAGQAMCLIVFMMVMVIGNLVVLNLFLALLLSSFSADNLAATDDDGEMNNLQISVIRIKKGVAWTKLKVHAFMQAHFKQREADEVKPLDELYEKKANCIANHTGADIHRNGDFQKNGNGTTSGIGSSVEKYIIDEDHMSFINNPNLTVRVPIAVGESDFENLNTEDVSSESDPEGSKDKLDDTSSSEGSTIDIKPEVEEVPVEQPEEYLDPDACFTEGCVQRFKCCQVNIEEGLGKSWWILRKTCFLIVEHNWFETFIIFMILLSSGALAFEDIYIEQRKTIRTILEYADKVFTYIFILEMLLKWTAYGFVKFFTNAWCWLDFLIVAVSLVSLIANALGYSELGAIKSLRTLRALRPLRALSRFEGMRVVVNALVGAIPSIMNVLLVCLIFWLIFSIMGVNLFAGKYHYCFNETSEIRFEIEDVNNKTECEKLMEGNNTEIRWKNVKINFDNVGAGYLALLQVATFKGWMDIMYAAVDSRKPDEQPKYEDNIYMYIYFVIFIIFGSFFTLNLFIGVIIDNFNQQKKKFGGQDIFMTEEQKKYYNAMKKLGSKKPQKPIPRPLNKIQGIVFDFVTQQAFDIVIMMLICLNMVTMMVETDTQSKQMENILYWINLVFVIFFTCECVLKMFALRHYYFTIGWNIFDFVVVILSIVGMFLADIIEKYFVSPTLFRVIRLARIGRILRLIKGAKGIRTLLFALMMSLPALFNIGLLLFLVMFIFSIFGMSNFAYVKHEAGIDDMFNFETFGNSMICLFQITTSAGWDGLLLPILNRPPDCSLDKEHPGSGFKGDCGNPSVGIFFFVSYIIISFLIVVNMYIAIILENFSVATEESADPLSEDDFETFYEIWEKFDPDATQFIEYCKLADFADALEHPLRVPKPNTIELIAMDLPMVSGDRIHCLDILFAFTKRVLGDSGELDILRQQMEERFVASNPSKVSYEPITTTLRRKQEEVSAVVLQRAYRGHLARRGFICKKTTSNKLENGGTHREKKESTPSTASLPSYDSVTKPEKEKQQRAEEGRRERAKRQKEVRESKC

Compound	inhibition at 100 µM [%]	IC50 [µM]
CCCc1nc(-c2cccc(Cl)c2)[nH]c1C [MV1372, 2-(3-CHLORO-PHENYL)-5-METHYL-4-PROPYL-1H-IMIDAZOLE OXALATE]	100	–
Cc1cnc(-c2cccc(Cl)c2)[nH]1 [MV1360, 2-(3-CHLORO-PHENYL)-5-METHYL-1H-IMIDAZOLE OXALATE]	70	–
COc1ccc(-c2nc(-c3ccc(NC(=O)c4ccccc4)cc3)c[nH]2)cc1 [MV1302, N-(4-[2-(4-METHOXY-PHENYL-1H-IMIDAZOL-4-YL]-PHENYL)-BENZAMIDE HYDROCHLORIDE]	20	–
O=C(Nc1cccc(-c2c[nH]c(-c3ccccc3)n2)c1)c1ccc(Cl)cc1 [MV1311, 4-CHLORO-N-[3-(2-PHENYL-1H-IMIDAZOL-4-YL)-PHENYL]-BENZAMIDE HYDROCHLORIDE]	90	–
Cc1cnc(-c2ccccc2Cl)[nH]1 [MV1361, 2-(2-CHLORO-PHENYL)-5-METHYL-1H-IMIDAZOLE OXALATE]	0	–
COc1ccccc1-c1ncc(C)[nH]1 [MV1358, 2-(2-METHOXY-PHENYL)-5-METHYL-1H-IMIDAZOLE OXALATE]	50	–
O=C(Nc1ccc(-c2c[nH]c(-c3ccccc3)n2)cc1)c1ccccc1 [MV1301, N-(4-[2-PHENYL-1H-IMIDAZOL-4-YL)-PHENYL]-BENZAMIDE HYDROCHLORIDE]	0	–
COc1cccc(-c2ncc(C)[nH]2)c1 [MV1357, 2-(3-METHOXY PHENYL)-5-METHYL-1H-IMIDAZOLE OXALATE]	90	–
FC(F)(F)c1ccccc1-c1nc2ccccc2[nH]1 [MV1075, 2-(2-trifluoromethyl-phenyl)-1H-1,3-benzodiazole]	20	> 100
CCCc1nc(-c2cccc(OC)c2)[nH]c1C [MV1369, 2-(3-METHOXY-PHENYL)-5-METHYL-4-PROPYL-1H-IMIDAZOLE OXALATE]	100	–
COc1ccc(-c2nc(-c3cccc(NC(=O)c4ccccc4)c3)c[nH]2)cc1 [MV1308, N-(3-[2-(4-METHOXY-PHENYL)-1H-IMIDAZOL-4-YL]-PHENYL)-BENZAMIDE HYDROCHLORIDE]	75	–
O=C(O)c1ccccc1-c1nc2ccccc2[nH]1 [MV1078, 2-(1H-1,3-benzodiazol-2-yl)benzoic acid]	5	> 100
Clc1ccccc1-c1nc2ccccc2[nH]1 [MV1068, 2-(2-chlorophenyl)-1H-1,3-benzodiazole]	75	41.6
Clc1ccc(-c2nc3ccccc3[nH]2)cc1 [MV1061, 2-(4-chlorophenyl)-1H-1,3-benzodiazole]	45	–
O=[N+]([O-])c1cccc(-c2nc3ccccc3[nH]2)c1 [MV1071, 2-(3-nitrophenyl)-1H-1,3-benzodiazole]	30	> 100
O=C(O)c1cccc(-c2nc3ccccc3[nH]2)c1 [MV1079, 3-(1H-1,3-benzodiazol-2-yl)benzoic acid]	15	> 100
CCCc1nc(-c2ccc(Cl)cc2)[nH]c1C [MV1371, 2-(4-CHLORO-PHENYL)-5-METHYL-4-PROPYL-1H-IMIDAZOLE OXALATE]	100	–

Compound	inhibition at 100 µM [%]	IC50 [µM]
O=[N+]([O-])c1ccccc1-c1nc2ccccc2[nH]1 [MV1070, 2-(2-nitrophenyl)-1H-1,3-benzodiazole]	20	> 100
Cc1ccccc1-c1nc2ccccc2[nH]1 [MV1081, 2-(2-methylphenyl)-1H-1,3-benzodiazole]	25	> 100
FC(F)(F)c1cccc(-c2nc3ccccc3[nH]2)c1 [MV1076, 2-(3-trifluoromethyl-phenyl)-1H-1,3-benzodiazole]	60	–
FC(F)(F)c1ccc2nc(-c3ccccc3)[nH]c2c1 [MV1086, 6-trifluoromethyl-2-phenyl-1H-1,3-benzodiazole]	90	24.7
Clc1cccc(-c2ncc[nH]2)c1 [MV1354, 2-(3-CHLORO-PHENYL)-1H-IMIDAZOLE OXALATE]	20	–
COc1ccccc1-c1nc(C)c(C)[nH]1 [MV1364, 2-(2-METHOXY-PHENYL)-4,5-DIMETHYL-1H-IMIDAZOLE OXALATE]	70	–
c1ccc(-c2nc3ccccc3[nH]2)cc1 [MV1060, 2-Phenyl-benzimidazole]	30	> 100
Cc1nc(-c2cccc(Cl)c2)[nH]c1C [MV1366, 2-(3-CHLORO-PHENYL)-4,5-DIMETHYL-1H-IMIDAZOLE OXALATE]	95	–
CCCc1nc(-c2ccccc2OC)[nH]c1C [MV1370, 2-(2-METHOXY-PHENYL)-5-METHYL-4-PROPYL-1H-IMIDAZOLE OXALATE]	90	–
Clc1ccccc1-c1ncc[nH]1 [MV1355, 2-(2-CHLORO-PHENYL)-1H-IMIDAZOLE OXALATE]	0	–
Clc1ccc(-c2ncc[nH]2)cc1 [MV1353, 2-(4-CHLORO-PHENYL)-1H-IMIDAZOLE OXALATE]	30	–
COc1ccc(C(=O)Nc2cccc(-c3c[nH]c(-c4ccc(OC)cc4)n3)c2)cc1 [MV1310, 4-METHOXY-N-(3-[2-(4-METHOXY-PHENYL)-1H-IMIDAZOL-A-YL]-PHENYL)-BENZAMIDE HYDROCHLORIDE]	60	–
O=C(Nc1ccc(-c2c[nH]c(-c3ccccc3)n2)cc1)c1ccc(Cl)cc1 [MV1305, 4-CHLORO-N-[4-(2-PHENYL-1H-IMIDAZOL-4-YL)-PHENYL]-BENZAMIDE HYDROCHLORIDE]	50	–
O=C(Nc1cccc(-c2c[nH]c(-c3ccccc3)n2)c1)c1ccccc1 [MV1307, N-[3-(2-PHENYL-1H-IMIDAZOL-4-YL)-PHENYL]-BENZAMIDE HYDROCHLORIDE]	25	–
COc1cccc(-c2nc(C)c(C)[nH]2)c1 [MV1363, 2-(3-METHOXY-PHENYL)-4,5-DIMETHYL-1H-IMIDAZOLE OXALATE]	80	–
COc1ccc(C(=O)Nc2ccc(-c3c[nH]c(-c4ccc(OC)cc4)n3)cc2)cc1 [MV1304, 4-METHOXY-N-(4-[2-(4-METHOXY-PHENYL)-1H-IMIDAZOL-4-YL]-PHENYL)-BENZAMIDE HYDROCHLORIDE]	40	–

Now from value to molecule:

inhibition at 100 µM [%]	IC50 [µM]	Compound
90	40.1	COc1ccccc1-c1nc2cc(Cl)ccc2[nH]1 [MV1089, 6-chloro-2-(2-methoxyphenyl]-1H-1,3-benzodiazole]
65	–	COc1ccc(-c2ncc(C)[nH]2)cc1 [MV1356, 2-(4-METHOXY-PHENYL)-5-METHYL-1H-IMIDAZOLE OXALATE]
55	–	Cc1ccc2nc(-c3ccccc3)[nH]c2c1 [MV1088, 6-methyl-2-phenyl-1H-1,3-benzodiazole]
25	–	COc1ccc(-c2ncc[nH]2)cc1 [MV1350, 2-(4-METHOXY-PHENYL)-1H-IMIDAZOLE OXALATE]
40	> 100	COc1cccc(-c2nc3ccccc3[nH]2)c1 [MV1074, 2-(3-methoxyphenyl)-1H-1,3-benzodiazole]
85	–	CCCc1nc(-c2ccc(OC)cc2)[nH]c1C [MV1368, 2-(4-METHOXY-PHENYL)-5-METHYL-4-PROPYL-1H-IMIDAZOLE OXALATE]
65	–	Cc1cccc(-c2nc3ccccc3[nH]2)c1 [MV1082, 2-(3-methylphenyl)-1H-1,3-benzodiazole]
20	> 100	O=[N+]([O-])c1ccc(-c2nc3ccccc3[nH]2)cc1 [MV1072, 2-(4-nitrophenyl)-1H-1,3-benzodiazole]
65	37	Clc1cccc(-c2nc3ccccc3[nH]2)c1 [MV1069, 2-(3-chlorophenyl)-1H-1,3-benzodiazole]
75	–	Cc1cnc(-c2ccc(Cl)cc2)[nH]1 [MV1359, 2-(4-CHLORO-PHENYL)-5-METHYL-1H-IMIDAZOLE OXALATE]
85	–	COc1ccc(-c2nc(-c3cccc(NC(=O)c4ccc(Cl)cc4)c3)c[nH]2)cc1 [MV1312, 4-CHLORO-N-(3-[2-(4-METHOXY-PHENYL)-1H-IMIDAZOL-4-YL]-PHENYL)-BENZAMIDE HYDROCHLORIDE]
0	> 100	COc1ccc(-c2nc3cc(Cl)ccc3[nH]2)cc1 [MV1091, 6-chloro-2-(4-methoxyphenyl)-1H-1,3-benzodiazole]
10	> 100	O=C(O)c1ccc(-c2nc3ccccc3[nH]2)cc1 [MV1080, 4-(1H-1,3-benzodiazol-2-yl)benzoic acid]
10	–	COc1ccc(-c2nc(-c3ccc(NC(=O)c4ccc(Cl)cc4)cc3)c[nH]2)cc1 [MV1306, 4-CHLORO-N-(4-[2-(4-METHOXY-PHENYL)-1H-IMIDAZOL-4-YL]-PHENYL)-BENZAMIDE HYDROCHLORIDE]
40	> 100	COc1ccccc1-c1nc2ccccc2[nH]1 [MV1073, 2-(2-methoxyphenyl)-1H-1,3-benzodiazole]
85	–	Cc1nc(-c2ccc(Cl)cc2)[nH]c1C [MV1365, 2-(4-CHLORO-PHENYL)-4,5-DIMETHYL-1H-IMIDAZOLE OXALATE]
35	> 100	COc1ccc2nc(-c3ccccc3)[nH]c2c1 [MV1085, 6-methoxy-2-phenyl-1H-1,3-benzodiazole]
85	29.6	COc1cccc(-c2nc3cc(Cl)ccc3[nH]2)c1 [MV1090, 6-chloro-2-(3-methoxyphenyl)-1H-1,3-benzodiazole]
85	–	COc1ccc(-c2nc(C)c(C)[nH]2)cc1 [MV1362, 2-(4-METHOXY-PHENYL)-4,5-DIMETHYL-1H-IMIDAZOLE OXALATE]
